Experimental data from ChEMBL document CHEMBL1649210, “Identification of the aminoglycoside resistance determinants armA and rmtC among non-Typhi Salmonella isolates from humans in the United States” (2009).

How the values were obtained:
[1] = test system: Salmonella enterica subsp. enterica serovar Stanley; assay: (§1) Antimicrobial activity against Salmonella enterica serotype Stanley isolate AM04864 expressing armA rRNA methyltransferase gene by broth microdilution method; type: functional
[2] = test system: Salmonella enterica subsp. enterica serovar Virchow; assay: (§2) Antimicrobial activity against Salmonella enterica serotype Virchow isolate AM23818 expressing rmtC rRNA methyltransferase gene by broth microdilution method; type: functional
[3] = as §1; type: functional, Salmonella enterica subsp. enterica serovar Stanley
[4] = as §2; type: functional, Salmonella enterica subsp. enterica serovar Virchow

Row | Compound | MIC [1] [µg/mL] | MIC [2] [µg/mL] | MIC [3] [µg/mL] | MIC [4] [µg/mL]
1 | GENTAMICIN | > 16 | > 16 | – | –
2 | NCC[C@H](O)C(=O)N[C@@H]1C[C@H](N)[C@@H](O[C@H]2O[C@H](CN)[C@@H](O)[C@H](O)[C@H]2O)[C@H](O)[C@H]1O[C@H]1O[C@H](CO)[C@@H](O)[C@H](N)[C@H]1O [AMIKACIN] | – | – | > 64 | > 64
3 | NC[C@H]1O[C@H](O[C@H]2[C@H](O)[C@@H](O[C@H]3O[C@H](CO)[C@@H](O)[C@H](N)[C@H]3O)[C@H](N)C[C@@H]2N)[C@H](O)[C@@H](O)[C@@H]1O [KANAMYCIN] | – | – | > 64 | > 64
